Values of other authors, collected in patent US20260001962A1, “COMBINATION THERAPY METHODS WITH T-CELL ENGAGING MOLECULES FOR TREATMENT OF PROSTATE CANCER” (AMGEN INC., priority 2022, published 2026).
“Also recorded” adds a separate entry of the source.

Columns and labels:
prostate cancer cells [1] = details: reported in literature
prostate cancer cells [2] = details: in vitro; Deegen et al. 2021

SMILES: CO[C@H]1C(=O)[C@]2(C)[C@@H](OC)C[C@H]3OC[C@@]3(OC(C)=O)[C@H]2[C@H](OC(=O)c2ccccc2)[C@]2(O)C[C@H](OC(=O)[C@H](O)[C@@H](NC(=O)OC(C)(C)C)c3ccccc3)C(C)=C1C2(C)C [Cabazitaxel]
- increase in median survival compared with mitoxantrone (mCRPC patients; mCRPC): 2.4 months

SMILES: [223Ra] [Radium-223]
- survival (mCRPC patients; patients with bone metastases, combined with best standard care, vs 11.3): 14.9 months

SMILES: CNC(=O)c1ccc(N2C(=S)N(c3ccc(C#N)c(C(F)(F)F)c3)C(=O)C2(C)C)cc1F [enzalutamide]
- OS (mCRPC patients; first line mCRPC setting, vs 31.3): 35.3 months
- expression of PSMA on prostate cancer cells (prostate cancer cells [1]): rapidly upregulate expression of PSMA
- cytotoxicity of prostate cancer cells induced by PSMA-targeted T-cell engager (AMG 160) (prostate cancer cells [2]): enhances cytotoxicity of prostate cancer cells; also recorded: enhance AMG 160-mediated cytotoxicity of prostate cancer cells
